# “And” between values parts separate entries of the source, which are not always exact repeats. Equal entries are not always repeated. Where two headings read alike, the source gives them in different places.
# What was measured:
# [1] = test system: murine leukaemia P388/ADR
# Excerpt: D) In Vivo Reversion of the Acquired Resistance to Medicaments
# 10^6 cells are implanted by the intraperitoneal route into female B6 D2 F1 mice on day 0 and treatment commences the following day in accordance with the administration schemes indicated.
# The parameter measured is the survival time, allowing the calculation of T/C: [formula]
# The variation in weight is calculaed; it provides information on the toxicity of the treatment. The control groups comprise from 15 to 27 animals and the treated groups from 5 to 10 animals.
# Six independent experiments were carried out. The assays were performed over 4 days in accordance with the scheme D1-4 the tumour cells being implanted on DO and the reversing agent and the cytotoxic agnet being administered on D1, D2, D3, and D4.
# [2] = test system: murine leukaemia P 388/ADR 10; assay: Evaluation of the increase in cytotoxicity of adriamycin on the line P 388/ADR-10 in vitro (reversion factor); format: cell-based; details: P 388/ADR 10, resistance induced by adriamycin
# [3] = test system: line P 388/ADR 10; assay: Flow cytometry, increase in fluorescence of ADR on the line P 388/ADR 10; format: cell-based, murine; details: ADR 50 μM, 5 h
# Method: (§1) By measuring that fluorescence it is possible to obtain a relative measurement of the intracellular concentration of ADR.
# (§2) […] After 5 hours' incubation, the intracellular uptake of adriamycin was evaluated by FCM.
# (§3) The analysis of each of the samples was carried out on a total of 10,000 cells at a speed of 1000 cells/sec.
# (§4) The results were presented in the form of linear histograms of the intracellular ADR fluorescence.
# (§5) Expression of the Results
# (§6) For each of the histograms, the channel mean fluorescence was determined by the apparatus information system. For all experiments:
# (§7) A negative control (cells without ADR) fixed the autofluorescence threshold.
# (§8) A positive control (cells with ADR) determined the MEAN value=MN1.
# (§9) The "test" tubes (cells with ADR and with compound) were used to determine, for each of the compounds and at each of the concentrations, the MEAN values=MN2.
# (§10) The results are expressed in the form of variations from the mean fluorescence obtained for each of the "test" tubes (MN2) in relation to the mean fluorescence obtained with the […] (MNl) : VAR-MEAN=MN2 -MN1. The parameter expressed is thus the increase in the fluorescence of adriamycin in the presence of the tested compounds.
# [4] = test system: Chinese Hamster Pulmonary Line DC-3F/AD; assay: Increase in the cytotoxicity of actinomycin D on the Chinese hamster pulmonary line DC-3F/AD; format: cell-based; details: 4 days;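 further: DC-3F/AD is an extremely resistant cell line whose resistance factor exceeds 10,000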
# Excerpt: The cytotoxic agent used was actinomycin D.
# Line DC-3F/AD is an extremely resistant line. Its resistance factor is higher than 10,000.
# [5] = test system: murine leukaemia P 388/ADR 10; assay: Evaluation of the increase in cytotoxicity of adriamycin on the line P 388/ADR-10 in vitro (reversion factor); format: cell-based; details: for Reversion Factor (RF): adriamycin, P 388/ADR-10, 48 h, TOX = toxic
# Method: In this study, the cytotoxicity of adriamycin was measured in the absence and in the presence of the reversing compound.
# The compounds tested for their capacity to reverse MDR are added at the same time as the cytotoxic agent. The cells are then incubated for 48 hours.
# [6] = test system: line DC-3F/AD; assay: Flow cytometry, increase in fluorescence of ADR on the line DC-3F/AD; format: cell-based, Chinese Hamster; details: ADR 50 μM, 5 h
# Method: as §1, §2, §3, §4, §5, §6, §7, §8, §9, §10
# [7] = in vivo; cited from earlier work
# [8] = ADR 2 mg/kg alone, i.p., D1-4, n=2
# [9] = ADR 4 mg/kg alone, i.p., D1-4, n=6
# [10] = Example 1 50 mg/kg + ADR 2 mg/kg, i.p., D1-4, n=2
# [11] = Example 1 50 mg/kg + ADR 4 mg/kg, i.p., D1-4, n=2
# [12] = Example 1 50 mg/kg alone, i.p., D1-4, n=2
# [13] = Example 1 100 mg/kg + ADR 2 mg/kg, i.p., D1-4, n=2
# [14] = Example 1 100 mg/kg + ADR 4 mg/kg, i.p., D1-4, n=6
# [15] = Example 1 100 mg/kg alone, i.p., D1-4, n=6
# [16] = Example 1 200 mg/kg + ADR 2 mg/kg, i.p., D1-4, n=4
# [17] = Example 1 200 mg/kg alone, i.p., D1-4, n=4
smiles,measurement,setting,value
"COc1cccc2c1C(=O)c1c(O)c3c(c(O)c1C2=O)C[C@@](O)(C(=O)CO)C[C@@H]3O[C@H]1C[C@H](N)[C@H](O)[C@H](C)O1 [ADR, adriamycin, reference compound]","T/C, extreme values",[1]; [8],116.7-120%
same,"T/C, mean ± s.e.m.",[1]; [8],118.3%
same,"T/C, median",[1]; [8],118.3%
same,"T/C, extreme values",[1]; [9],105-130%
same,"T/C, mean ± s.e.m.",[1]; [9],115.1 ± 3.9%
same,"T/C, median",[1]; [9],112.5%
same,antitumour activity,"[1]; ADR alone, P388/ADR",not exhibiting any antitumour activity
same,T/C,"[1]; ADR alone, i.p.",< 120%
same,factor of resistance in relation to the sensitive line,[2],260
"C=CCNc1nc(NCC=C)nc(N2CCC(NCC(c3ccc(F)cc3)c3ccc(F)cc3)CC2)n1 [Example 1, 1-[4,6-bis(allylamino)-2-s-triazinyl]-4-[2,2-bis(p-fluorophenyl)ethylamino]piperidine]",Increase in fluorescence of ADR (VAR-MEAN = MN2 - MN1),[3]; compound 2 μM,53.1
same,Increase in fluorescence of ADR (VAR-MEAN = MN2 - MN1),[3]; compound 5 μM,74.1
same,Increase in fluorescence of ADR (VAR-MEAN = MN2 - MN1),[3]; compound 10 μM,85.49
same,Increase in fluorescence of ADR (VAR-MEAN = MN2 - MN1),[3]; compound 20 μM,78.5
same,Reversion Factor (RF),[4]; compound 2.5 μM,171
same,Reversion Factor (RF),[4]; compound 5 μM,905
same,Reversion Factor (RF),[4]; compound 10 μM,2575
same,Reversion Factor (RF),[4]; compound 20 μM,TOX
same,"T/C, extreme values",[1]; [10],120-141.7%
same,"T/C, mean ± s.e.m.",[1]; [10],130.9%
same,"T/C, median",[1]; [10],130.9%
same,"T/C, extreme values",[1]; [11],116.7-140%
same,"T/C, mean ± s.e.m.",[1]; [11],128.4%
same,"T/C, median",[1]; [11],128.4%
same,"T/C, extreme values",[1]; [12],90-108.3%
same,"T/C, mean ± s.e.m.",[1]; [12],99.2%
same,"T/C, median",[1]; [12],99.2%
same,"T/C, extreme values",[1]; [13],116.7-140%
same,"T/C, mean ± s.e.m.",[1]; [13],128.4%
same,"T/C, median",[1]; [13],128.4%
same,"T/C, extreme values",[1]; [14],120-150%
same,"T/C, mean ± s.e.m.",[1]; [14],134.2 ± 4.4%
same,"T/C, median",[1]; [14],134.2%
same,"T/C, extreme values",[1]; [15],85-100%
same,"T/C, mean ± s.e.m.",[1]; [15],91.7 ± 2.8%
same,"T/C, median",[1]; [15],90%
same,increase in activity as a result of the compound of Example 1,"[1]; Example 1 200 mg/kg + ADR 2 mg/kg, i.p.",30.6%
same,"T/C, extreme values",[1]; [16],140-155.6%
same,"T/C, mean ± s.e.m.",[1]; [16],148.9% and 148.9 ± 3.2%
same,"T/C, median",[1]; [16],150%
same,activity,"[1]; Example 1 200 mg/kg + ADR 2 mg/kg, T/C ≥ 135% good activity",good activity
same,"T/C, extreme values",[1]; [17],80-88.9%
same,"T/C, mean ± s.e.m.",[1]; [17],83.5 ± 2.2%
same,"T/C, median",[1]; [17],82.5%
same,toxicity,"[1]; Example 1 alone, 200 mg/kg, i.p., T/C ≤ 85% toxic",only moderately toxic
same,antitumour activity,"[1]; Example 1 alone, 50 to 200 mg/kg, i.p.",does not possess any antitumour activity
same,activity,"[1]; Example 1 at 50 and 100 mg/kg (Table V: with ADR), T/C ≥ 120% moderate activity",modest activity
same,Reversion Factor (RF),[5]; compound 2.5 μM,110.8
same,Reversion Factor (RF),[5]; compound 5 μM,244.4
same,Reversion Factor (RF),[5]; compound 10 μM,170.7
same,Increase in fluorescence of ADR (VAR-MEAN = MN2 - MN1),[6]; compound 2 μM,18.27
same,Increase in fluorescence of ADR (VAR-MEAN = MN2 - MN1),[6]; compound 5 μM,26.13
same,Increase in fluorescence of ADR (VAR-MEAN = MN2 - MN1),[6]; compound 10 μM,35.57
same,Increase in fluorescence of ADR (VAR-MEAN = MN2 - MN1),[6]; compound 20 μM,43.63
COC(=O)[C@H]1[C@H]2C[C@@H]3c4[nH]c5cc(OC)ccc5c4CCN3C[C@H]2C[C@@H](OC(=O)c2cc(OC)c(OC)c(OC)c2)[C@@H]1OC [RESERPINE],Increase in fluorescence of ADR (VAR-MEAN = MN2 - MN1),[3]; compound 2 μM,73.46
same,Increase in fluorescence of ADR (VAR-MEAN = MN2 - MN1),[3]; compound 5 μM,80.48
same,Increase in fluorescence of ADR (VAR-MEAN = MN2 - MN1),[3]; compound 10 μM,91.90
same,Increase in fluorescence of ADR (VAR-MEAN = MN2 - MN1),[3]; compound 20 μM,85.39
same,Reversion Factor (RF),[4]; compound 2.5 μM,258
same,Reversion Factor (RF),[4]; compound 5 μM,1085
same,Reversion Factor (RF),[4]; compound 10 μM,1649
same,Reversion Factor (RF),[4]; compound 20 μM,2024
same,activity in reversing resistance in vitro,"[5]; P 388/ADR-10, adriamycin",very good activity in vitro
same,Reversion Factor (RF),[5]; compound 5 μM,215.5
same,Reversion Factor (RF),[5]; compound 10 μM,189
same,toxicity,[7],high degree of toxicity
same,Increase in fluorescence of ADR (VAR-MEAN = MN2 - MN1),[6]; compound 2 μM,26.18
same,Increase in fluorescence of ADR (VAR-MEAN = MN2 - MN1),[6]; compound 5 μM,29.43
same,Increase in fluorescence of ADR (VAR-MEAN = MN2 - MN1),[6]; compound 10 μM,31.73
same,Increase in fluorescence of ADR (VAR-MEAN = MN2 - MN1),[6]; compound 20 μM,29.95

# From patent US5225411A, “Disubstituted polymethyleneimines” (priority 1990, dated 1993)
